Laboratory results from patent US9409914B2, “Triazolo[4,5-d]pyrimidine derivatives” (Merck Patent GmbH, priority 2012, dated 2016).
pIC50: −log10 of the molar value.

The compounds below were run against GCN2 (Homo sapiens, UniProt Q9P2K8) (assay: GCN2 enzyme assay (TR-FRET Lanthascreen, phosphorylation of GFP-eIF2alpha)). Settings: 10 μM ATP, 80 nM GFP-eIF2alpha, 30 nM GCN2, room temperature.
Type: biochemical
Excerpt: GCN2: Assay principle & conditions
This assay can quantificate the activity of the serin kinase GCN2 (general control non-derepressible-2).
This kinase is involved in the stress metabolism of cells. It is activated upon starvation (amino acid depletion). Its natural substrate is eIF2a (eukaryotic initiation factor 2 alpha subunit), a translation factor, which gets activated (phosphorylated) by GCN2 in case of an amino acid bottleneck in the cells. This in turn leads to a halt of the protein synthesis. Inhibition of GCN2 results in stopping this mechanism: The cell can not stop protein production upon “starvation” stress.
The assay is run in two steps: the enzymatic reaction and the detection step. In the first step GCN2 is incubated with 10 μM ATP and 80 nM of the GFP-labelled substrate eIF2alpha at room temperature.
The enzymatic reaction is stopped by addition of EDTA. The amount of phosphorylated eIF2alpha is determined by TR-FRET (Lanthascreen): A complex is formed consisting of antibody and GFP labelled phospho-eIF2a, which allows a FRET upon exitation at 340 nm.
The GCN2-activity is directly proportional to the ratio of fluorescence units at the emission wavelengthh 520 nm (phosphopeptide-sensitive wavelength=emission of GFP) to the units at 495 nm (reference wavelength=emission of Terbium-chelate).
Final Concentrations in the Enzymatic Reaction

Chain of GCN2 (Q9P2K8 whole entry, species assumed): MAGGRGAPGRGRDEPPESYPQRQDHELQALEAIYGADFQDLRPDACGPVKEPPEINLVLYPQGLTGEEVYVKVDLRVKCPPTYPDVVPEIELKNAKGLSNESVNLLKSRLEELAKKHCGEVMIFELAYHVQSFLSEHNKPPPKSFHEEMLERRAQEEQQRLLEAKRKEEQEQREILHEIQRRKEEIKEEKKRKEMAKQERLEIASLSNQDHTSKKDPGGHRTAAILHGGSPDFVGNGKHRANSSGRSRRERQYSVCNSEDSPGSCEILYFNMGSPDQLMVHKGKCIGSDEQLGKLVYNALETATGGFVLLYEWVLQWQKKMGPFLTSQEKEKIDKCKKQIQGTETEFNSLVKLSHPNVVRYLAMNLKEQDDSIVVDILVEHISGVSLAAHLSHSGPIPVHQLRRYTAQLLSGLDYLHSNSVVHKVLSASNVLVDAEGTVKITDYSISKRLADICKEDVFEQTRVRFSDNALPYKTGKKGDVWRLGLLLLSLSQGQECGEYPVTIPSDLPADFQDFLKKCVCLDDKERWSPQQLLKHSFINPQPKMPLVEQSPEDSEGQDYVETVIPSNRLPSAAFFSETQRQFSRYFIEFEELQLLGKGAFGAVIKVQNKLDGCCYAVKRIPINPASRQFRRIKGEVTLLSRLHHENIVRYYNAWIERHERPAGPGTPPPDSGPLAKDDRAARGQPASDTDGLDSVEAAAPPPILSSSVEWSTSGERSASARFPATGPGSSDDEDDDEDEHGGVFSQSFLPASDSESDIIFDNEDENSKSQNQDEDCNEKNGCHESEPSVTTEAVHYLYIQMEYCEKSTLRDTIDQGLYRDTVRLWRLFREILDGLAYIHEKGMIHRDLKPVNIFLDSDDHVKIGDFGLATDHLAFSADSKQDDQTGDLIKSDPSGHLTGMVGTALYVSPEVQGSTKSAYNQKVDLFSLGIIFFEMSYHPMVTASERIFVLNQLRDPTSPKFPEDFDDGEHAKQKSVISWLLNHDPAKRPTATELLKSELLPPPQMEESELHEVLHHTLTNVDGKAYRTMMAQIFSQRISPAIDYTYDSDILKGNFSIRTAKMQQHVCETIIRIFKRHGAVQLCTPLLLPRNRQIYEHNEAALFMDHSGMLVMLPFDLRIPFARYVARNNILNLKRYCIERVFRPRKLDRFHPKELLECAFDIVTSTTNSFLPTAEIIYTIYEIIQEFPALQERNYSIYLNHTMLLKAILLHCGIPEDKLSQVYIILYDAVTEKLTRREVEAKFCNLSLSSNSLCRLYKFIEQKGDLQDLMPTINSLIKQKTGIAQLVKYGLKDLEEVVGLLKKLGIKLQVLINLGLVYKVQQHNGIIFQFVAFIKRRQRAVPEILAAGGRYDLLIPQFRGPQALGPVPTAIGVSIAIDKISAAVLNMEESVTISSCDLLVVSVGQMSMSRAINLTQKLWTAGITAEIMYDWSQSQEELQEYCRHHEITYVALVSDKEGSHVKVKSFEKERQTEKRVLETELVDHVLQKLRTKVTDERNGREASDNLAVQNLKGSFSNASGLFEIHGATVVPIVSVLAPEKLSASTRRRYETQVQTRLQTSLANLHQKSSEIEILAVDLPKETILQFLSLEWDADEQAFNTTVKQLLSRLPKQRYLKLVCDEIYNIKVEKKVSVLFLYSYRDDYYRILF

Compound | pIC50
CC(=O)Nc1ccc(-n2nnc3cnc(Nc4cnn(C[C@@H]5C[C@H]5CO)c4)nc32)cn1 (relative stereo) [Compound A59, N-(5-{5-[1-((trans)-2-hydroxymethyl-cyclopropylmethyl)-1H-pyrazol-4-ylamino]-[1,2,3]triazolo[4,5-d]pyrimidin-3-yl}-pyridin-2-yl)-acetamide] | 5.52 to 6.52
Nc1ccc(-n2nnc3cnc(Nc4cnn(C[C@@H]5C[C@H]5CO)c4)nc32)cn1 (relative stereo) [Compound A60, ((trans)-2-{4-[3-(6-amino-pyridin-3-yl)-3H-[1,2,3]triazolo[4,5-d]pyrimidin-5-ylamino]-pyrazol-1-ylmethyl}-cyclopropyl)-methanol] | 5.52 to 6.52
OC[C@@H]1C[C@H]1Cn1cc(Nc2ncc3nnn(-c4ccc5nccnc5c4)c3n2)cn1 (relative stereo) [Compound A104, {(trans)-2-[4-(3-quinoxalin-6-yl-3H-[1,2,3]triazolo[4,5-d]pyrimidin-5-ylamino)-pyrazol-1-ylmethyl]-cyclopropyl}-methanol] | > 6.52
COc1ccc(-n2nnc3cnc(Nc4ccn(C)n4)nc32)cc1 [Compound A2, [3-(4-methoxy-phenyl)-3H-[1,2,3]triazolo[4,5-d]pyrimidin-5-yl]-(1-methyl-1H-pyrazol-3-yl)-amine] | 4.30 to 5.52
CCOc1ccc(-n2nnc3cnc(Nc4cn[nH]c4)nc32)cc1 [Compound A5, [3-(4-ethoxy-phenyl)-3H-[1,2,3]triazolo[4,5-d]pyrimidin-5-yl]-(1H-pyrazol-4-yl)-amine] | > 6.52
CCOc1ccc(-n2nnc3cnc(Nc4cnn(C5CCNCC5)c4)nc32)cc1 [Compound A7, [3-(4-Ethoxy-phenyl)-3H-[1,2,3]triazolo[4,5-d]pyrimidin-5-yl]-(1-piperidin-4-yl-1H-pyrazol-4-yl)-amine] | > 6.52
COCCCn1cc(Nc2ncc3nnn(-c4ccc(OC)cc4)c3n2)cn1 [Compound A9, [3-(4-methoxy-phenyl)-3H-[1,2,3]triazolo[4,5-d]pyrimidin-5-yl]-[1-(3-methoxy-propyl)-1H-pyrazol-4-yl]-amine] | 5.52 to 6.52
COc1ccc(-n2nnc3cnc(Nc4cnn(Cc5ccccc5)c4)nc32)cc1 [Compound A10, (1-benzyl-1H-pyrazol-4-yl)-[3-(4-methoxy-phenyl)-3H-[1,2,3]triazolo[4,5-d]pyrimidin-5-yl]-amine] | 4.30 to 5.52
COc1ccc(-n2nnc3cnc(/N=C4/N=C(C)CO4)nc32)cc1 [Compound A12, [3-(4-methoxy-phenyl)-3H-[1,2,3]triazolo[4,5-d]pyrimidin-5-yl]-[4-methyl-5H-oxazol-(2Z)-ylidene]-amine] | 4.30 to 5.52
COc1ccc(-n2nnc3cnc(Nc4cnn(C5CCOCC5)c4)nc32)cc1 [Compound A13, [3-(4-methoxy-phenyl)-3H-[1,2,3]triazolo[4,5-d]pyrimidin-5-yl]-[1-(tetrahydro-pyran-4-yl)-1H-pyrazol-4-yl]-amine] | > 6.52
COc1ccc(-n2nnc3cnc(Nc4cnn(CCN5CCCC5)c4)nc32)cc1 [Compound A14, [3-(4-methoxy-phenyl)-3H-[1,2,3]triazolo[4,5-d]pyrimidin-5-yl]-[1-(2-pyrrolidin-1-yl-ethyl)-1H-pyrazol-4-yl]-amine] | > 6.52
CCOc1ccc(-n2nnc3cnc(Nc4cnn(C5CCOCC5)c4)nc32)cc1 [Compound A15, [3-(4-ethoxy-phenyl)-3H-[1,2,3]triazolo[4,5-d]pyrimidin-5-yl]-[1-(tetrahydro-pyran-4-yl)-1H-pyrazol-4-yl]-amine] | > 6.52
COc1ccc(-n2nnc3cnc(Nc4ncn[nH]4)nc32)cc1 [Compound A17, [3-(4-methoxy-phenyl)-3H-[1,2,3]triazolo[4,5-d]pyrimidin-5-yl]-(2H-[1,2,4]triazol-3-yl)-amine] | 4.30 to 5.52
COc1ccc(-n2nnc3cnc(Nc4cnn(C)c4)nc32)cc1 [Compound A18, [3-(4-methoxy-phenyl)-3H-[1,2,3]triazolo[4,5-d]pyrimidin-5-yl]-(1-methyl-1H-pyrazol-4-yl)-amine] | > 6.52
CCOc1ccc(-n2nnc3cnc(Nc4cnn([C@H]5CC[C@@H](O)CC5)c4)nc32)cc1 [Compound A19, 4-{4-[3-(4-ethoxy-phenyl)-3H-[1,2,3]triazolo[4,5-d]pyrimidin-5-ylamino]-pyrazol-1-yl}-cyclohexanol] | > 6.52
Fc1ccc(-n2nnc3cnc(Nc4cnn(C5CCOCC5)c4)nc32)cc1 [Compound A20, [3-(4-fluoro-phenyl)-3H-[1,2,3]triazolo[4,5-d]pyrimidin-5-yl]-[1-(tetrahydro-pyran-4-yl)-1H-pyrazol-4-yl]-amine] | > 6.52
Cn1cc(Nc2ncc3nnn(-c4cnn(C)c4)c3n2)cn1 [Compound A21, (1-methyl-1H-pyrazol-4-yl)-[3-(1-methyl-1H-pyrazol-4-yl)-3H-[1,2,3]triazolo[4,5-d]pyrimidin-5-yl]-amine] | > 6.52

Compound | pIC50
COc1ccc(-n2nnc3cnc(Nc4nc(-c5ccc(NC(C)=O)cc5)cs4)nc32)cc1 [Compound A42, N-[4-[2-[[3-(4-methoxyphenyl)triazolo[4,5-d]pyrimidin-5-yl]amino]thiazol-4-yl]phenyl]acetamide] | 5.52 to 6.52
O=C1CCCN1c1ccc(-n2nnc3cnc(Nc4cnn(C5CCOCC5)c4)nc32)cc1 [Compound A43, 1-[4-[5-[(1-tetrahydropyran-4-ylpyrazol-4-yl)amino]triazolo[4,5-d]pyrimidin-3-yl]phenyl]pyrrolidin-2-one] | > 6.52
CCCCOc1ccc(-n2nnc3cnc(Nc4cnn(C5CCN(C)CC5)c4)nc32)cn1 [Compound A45, [3-(6-butoxy-pyridin-3-yl)-3H-[1,2,3]triazolo[4,5-d]pyrimidin-5-yl]-[1-(1-methyl-piperidin-4-yl)-1H-pyrazol-4-yl]-amine] | 5.52 to 6.52
CCCCOc1ccc(-n2nnc3cnc(Nc4cnn(C5CCOCC5)c4)nc32)cn1 [Compound A47, [3-(6-butoxy-pyridin-3-yl)-3H-[1,2,3]triazolo[4,5-d]pyrimidin-5-yl]-[1-(tetrahydro-pyran-4-yl)-1H-pyrazol-4-yl]-amine] | 5.52 to 6.52
COCCCn1cc(Nc2ncc3nnn(-c4ccc(Cl)c(F)c4)c3n2)cn1 [Compound A50, [3-(4-chloro-3-fluoro-phenyl)-3H-[1,2.3]triazolo[4,5-d]pyrimidin-5-yl]-[1-(3-methoxy-propyl)-1H-pyrazol-4-yl]-amine] | > 6.52
CN1CCC(n2cc(Nc3ncc4nnn(-c5cnc6ccccc6c5)c4n3)cn2)CC1 [Compound A52, [1-(1-methyl-piperidin-4-yl)-1H-pyrazol-4-yl]-(3-quinolin-3-yl-3H-[1,2,3]triazolo[4,5-d]pyrimidin-5-yl)-amine] | > 6.52
CC(C)(C)OCCn1cc(Nc2ncc3nnn(-c4ccc(Cl)c(F)c4)c3n2)cn1 [Compound A53, [1-(2-tert-butoxy-ethyl)-1H-pyrazol-4-yl]-[3-(4-chloro-3-fluoro-phenyl)-3H-[1,2,3]triazolo[4,5-d]pyrimidin-5-yl]-amine] | 5.52 to 6.52
CCCCOc1ccc(-n2nnc3cnc(Nc4cnn(CCC5CCNCC5)c4)nc32)cn1 [Compound A55, [3-(6-butoxy-pyridin-3-yl)-3H-[1,2,3]triazolo[4,5-d]pyrimidin-5-yl]-[1-(2-piperidin-4-yl-ethyl)-1H-pyrazol-4-yl]-amine] | 5.52 to 6.52
CCCCOc1ccc(-n2nnc3cnc(Nc4cnn(CC)c4)nc32)cn1 [Compound A57, [3-(6-butoxy-pyridin-3-yl)-3H-[1,2,3]triazolo[4,5-d]-pyrimidin-5-yl]-(1-ethyl-1H-pyrazol-4-yl)-amine] | 5.52 to 6.52
CCn1cc(Nc2ncc3nnn(-c4ccc(NC(C)=O)nc4)c3n2)cn1 [Compound A58, N-{5-[5-(1-ethyl-1H-pyrazol-4-ylamino)-[1,2,3]triazolo[4,5-d]pyrimidin-3-yl]-pyridin-2-yl}-acetamide] | > 6.52
CCn1cc(Nc2ncc3nnn(-c4cnc5ccccc5c4)c3n2)cn1 [Compound A61, (1-ethyl-1H-pyrazol-4-yl)-(3-quinolin-3-yl-3H-[1,2,3]triazolo[4,5-d]pyrimidin-5-yl)-amine] | > 6.52
CCn1cc(Nc2ncc3nnn(-c4ccnc(OC)c4)c3n2)cn1 [Compound A62, (1-ethyl-1H-pyrazol-4-yl)-[3-(2-methoxy-pyridin-4-yl)-3H-[1,2,3]triazolo[4,5-d]pyrimidin-5-yl]-amine] | > 6.52
CCn1cc(Nc2ncc3nnn(-c4ccc(F)cc4)c3n2)cn1 [Compound A63, (1-ethyl-1H-pyrazol-4-yl)-[3-(4-fluoro-phenyl)-3H-[1,2,3]triazolo[4,5-d]pyrimidin-5-yl]-amine] | > 6.52
CCOc1ccc(-n2nnc3cnc(Nc4cnn(-c5ccccc5)c4)nc32)cc1 [Compound A64, [3-(4-ethoxy-phenyl)-3H-[1,2,3]triazolo[4,5-d]pyrimidin-5-yl]-(1-phenyl-1H-pyrazol-4-yl)-amine] | > 6.52
CCn1cc(Nc2ncc3nnn(-c4ccc(O)cc4)c3n2)cn1 [Compound A66, 4-[5-(1-ethyl-1H-pyrazol-4-ylamino)-[1,2,3]triazolo[4,5-d]pyrimidin-3-yl]-phenol] | > 6.52
CCn1cc(Nc2ncc3nnn(-c4ccc(F)cc4C#N)c3n2)cn1 [Compound A72, 2-[5-(1-ethyl-1H-pyrazol-4-ylamino)-[1,2,3]triazolo[4,5-d]pyrimidin-3-yl]-5-fluoro-benzonitrile] | 5.52 to 6.52
